In series [1] the test system is Leishmania infantum. The series is described as follows: Antileishmanial activity against Leishmania infantum MHOM/MA/67/ITMAP263 promastigotes infected in BALB/c mouse peritoneal macrophages assessed as decrease in parasitic infection index at 48 uM incubated for 72 hrs by light microscopy relative to control. As to conditions: MHOM/MA/67/ITMAP263, 72 h. It is filed as functional.

For series [2], the system named is Leishmania infantum. The series is described as follows: Antileishmanial activity against Leishmania infantum MHOM/MA/67/ITMAP263 promastigotes infected in BALB/c mouse peritoneal macrophages assessed as decrease in parasitic infection index incubated for 72 hrs by light microscopy. It is filed as functional, organism-based.
In series [3] the test system is Leishmania infantum. The series is described as follows: Antileishmanial activity against stationary phase of Leishmania infantum MHOM/MA/67/ITMAP263 infected in BALB/c mouse assessed as decrease in parasitic load in liver at 12.5 mg/kg/day administered orally via gavage as bid for 5 days on 7th day post infection and measured on day 30 by limiting dilution assay relative to control. The series is classed as functional. As to conditions: MHOM/MA/67/ITMAP263, po.

A short description of series [4]: Selectivity index, ratio of CC50 for mouse peritoneal macrophages to EC50 for Leishmania infantum MHOM/MA/67/ITMAP263 promastigotes infected in BALB/c mouse peritoneal macrophages. The series is classed as toxicity. As to conditions: read-out: Ratio CC50/EC50.
Series [5] relates to Leishmania infantum. The series is described as follows: Antileishmanial activity against stationary phase of Leishmania infantum MHOM/MA/67/ITMAP263 promastigotes infected in BALB/c mouse assessed as decrease in parasitic load in liver at 50 mg/kg/day administered orally via gavage as bid for 5 days on 7th day post infection and measured on day 30 by limiting dilution assay relative to control. The series is classed as functional. The settings on record: MHOM/MA/67/ITMAP263, po.

The test system of series [6] is Leishmania infantum. Description: Antileishmanial activity against stationary phase of Leishmania infantum MHOM/MA/67/ITMAP263 promastigotes infected in orally dosed BALB/c mouse assessed as decrease in parasitic load in liver administered via gavage bid for 5 days on 7th day post infection and measured on day 30 by limiting dilution assay. The series is classed as functional.

The test system of series [7] is Leishmania infantum. Description: Antileishmanial activity against stationary phase of Leishmania infantum MHOM/MA/67/ITMAP263 infected in BALB/c mouse assessed as decrease in parasitic load in liver at 25 mg/kg/day administered orally via gavage as bid for 5 days on 7th day post infection and measured on day 30 by limiting dilution assay relative to control. The series is classed as functional. As to conditions: MHOM/MA/67/ITMAP263, po.

Series [8] deals with Leishmania infantum. Description: Antileishmanial activity against stationary phase of Leishmania infantum MHOM/MA/67/ITMAP263 promastigotes infected in BALB/c mouse assessed as decrease in parasitic load in liver at 50 mg Sb5+/kg/day, im once daily for 5 days on 7th day post infection and measured on day 30 by limiting dilution assay. It is filed as functional, organism-based.

This is an account of results in ChEMBL document CHEMBL4414580, “(-)-Epigallocatechin 3-O-Gallate as a New Approach for the Treatment of Visceral Leishmaniasis” (J Nat Prod, 2019).

The source made the active and inactive calls. The calls are words filed in the database; no cut-off is given here.

What is called inhibition is how much of the control response was suppressed. As a reminder, the EC50 is the concentration that produces a half-maximal response. Usually inhibition in vivo stands for the relative decrease from the control value, in per cent. What is called ED50 is the dose that gives a 50% effect, or the effect in half of the subjects.

`O=C(O[C@@H]1Cc2c(O)cc(O)cc2O[C@@H]1c1cc(O)c(O)c(O)c1)c1cc(O)c(O)c(O)c1` [EPIGALOCATECHIN GALLATE]: the inhibition at 48 µM in the series with Leishmania infantum [1] is 97.7%. For the same compound, in the series on Leishmania infantum [2], the inhibition result is “Dose-dependent effect”. For the same compound, the EC50 in the series on Leishmania infantum [2] (MHOM/MA/67/ITMAP263, 72 h) is 2600 nM. In the series with Leishmania infantum [3], the inhibition in vivo at 12.5 mg/kg/day worked out at 47.5%. The selectivity ratio in series [4] was found to be 168. The inhibition in vivo at 50 mg/kg/day in the series with Leishmania infantum [5] came to 98.7%. Besides, the inhibition entry with Leishmania infantum [6] was “Dose-dependent effect”. Besides, in the series on Leishmania infantum [6] (MHOM/MA/67/ITMAP263, po), the ED50 amounted to 12.4 mg/kg/day and the ED90 is 21.5 mg/kg/day. Further, the inhibition in vivo at 25 mg/kg/day with Leishmania infantum [7] was found to be 93.6%.
For the compound Meglumine antimoniate, the inhibition result in the series with Leishmania infantum [8] was “Active”.
